# Assay results: patent publication US9345245B2, “Synthetic compounds for vegetative ABA responses” (THE REGENTS OF THE UNIVERSITY OF CALIFORNIA, priority 2012, dated 2016)
# Tests used:
# [1] = target: T1, PYL5 (Arabidopsis thaliana, UniProt Q9FLB1); assay: Receptor-mediated PP2C inhibition assay, receptor PYL5; assay type: biochemical
# T1 construct: 6xHis (N); made in house; BL21[DE3]pLysS for the GST-PP2Cs
# T1 sequence (Q9FLB1 1-203): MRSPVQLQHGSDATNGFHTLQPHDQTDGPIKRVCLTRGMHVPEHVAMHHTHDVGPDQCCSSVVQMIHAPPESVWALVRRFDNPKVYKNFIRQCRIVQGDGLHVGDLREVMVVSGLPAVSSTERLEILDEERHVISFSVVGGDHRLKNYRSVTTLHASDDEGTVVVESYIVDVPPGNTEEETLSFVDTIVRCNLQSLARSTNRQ
# T1 sequence (Q9CAJ0 23-511 partner): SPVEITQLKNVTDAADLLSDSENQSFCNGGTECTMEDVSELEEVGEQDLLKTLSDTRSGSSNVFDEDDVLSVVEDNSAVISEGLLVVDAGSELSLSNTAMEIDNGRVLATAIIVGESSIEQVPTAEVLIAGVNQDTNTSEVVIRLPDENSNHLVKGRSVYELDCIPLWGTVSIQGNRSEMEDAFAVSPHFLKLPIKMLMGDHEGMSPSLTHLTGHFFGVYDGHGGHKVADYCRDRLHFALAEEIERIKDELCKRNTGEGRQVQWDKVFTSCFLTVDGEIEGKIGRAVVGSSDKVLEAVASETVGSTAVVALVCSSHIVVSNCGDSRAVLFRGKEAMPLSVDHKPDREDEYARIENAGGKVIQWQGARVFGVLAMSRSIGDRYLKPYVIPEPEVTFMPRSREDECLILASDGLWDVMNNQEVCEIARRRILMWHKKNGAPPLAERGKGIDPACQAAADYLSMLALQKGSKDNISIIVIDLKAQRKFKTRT
# Procedure: HAB1 and PYL proteins were expressed and purified as described previously (Park S Y, et al. (2009) Abscisic Acid Inhibits Type 2C Protein Phosphatases via the PYR/PYL Family of START Proteins. Science 324(5930):1068-1071), with minor modifications. To obtain GST-HAB1, -ABI1 and -ABI2 fusion proteins, the HAB1 cDNA was cloned into pGex-2T whereas ABI1 and ABI2 cDNAs were cloned into the vector pGex-4T-1. Expression was conducted in BL21[DE3]pLysS host cells. Transformed cells were pre-cultured overnight, transferred to LB medium and cultured at 30° C. to culture A600 of ˜0.5. The culture was then cooled on ice and MnCl2 added to 4 mM and IPTG added to 0.3 mM. After 16 hours incubation at 15° C., cells were harvested and recombinant proteins were purified on glutathione agarose as described previously (Park S Y, et al. (2009). To obtain 6×His-PYL receptor fusion proteins, receptor cDNAs for all 13 ABA receptors were cloned into the vector pET28 and expressed and purified as described previously (Mosquna A, et al. (2011) Potent and selective activation of abscisic acid receptors in vivo by mutational stabilization of their agonist-bound conformation. PNAS 108(51):20838-20843); this yielded soluble and functional protein (assessed using receptor-mediated PP2C inhibition assays) for all receptors except PYL7, PYL11 and PYL12. […]
# [2] = tested on: Physcomitrella patens protonema; assay: Protonema growth of moss; assay type: in vivo; conditions: 200 μM, 10 days
# Procedure: FIG. 17. The effect of ABA and its agonists in Physcomitrella patens and Chlamydomonas. Protonemal growth images (A) and quantitative analysis (B) of the effects of ABA and agonists on Phsycomitrella patens. Protonema were grown on 200 μM of specific test chemical for 10 days. […] Pyrabactin bleached protonema. (C) The expression of ABA-responsive genes of Physcomitrella patens. Protonema were treated with 200 μM chemical solutions for 3 h. (D) Colony growth of Chlamydomonas on the chemical with salinity stress and osmotic stress. There was no effect of ABA and LC66C6 on the Chlamydomonas growth with and without stresses.
smiles,measurement,setting,value
O=S(=O)(NCc1ccccn1)c1ccc(Br)c2ccccc12 [pyrabactin],PP2C inhibition at saturation,[1]; maximal (saturating) inhibition,~40%
same,IC50,[1]; read-out: IC50 (activation of PYL5),900 nM
same,bleaching of protonema (toxicity),[2],bleached the protonema
